Source: US10123998B2, “Kinase modulation, and indications therefor” (Plexxikon Inc., priority 2012, dated 2018)

Tested on: Osteoclast precursor cells
Assay: Osteoclast differentiation assay
Format: cell-based
Procedure: Further, an osteoclast differentiation assay is used to assess the efficacy of Fms inhibitors for treating bone disease such as osteoarthritis. On day 0, Osteoclast Medium BulletKit (Lonza catalog # PT-8001, containing Media, FBS, L-Glutamine, PenStrep, RANKL, and M-CSF) media is thawed and the FBS, L-glutamine and PenStrep from the kit is added to 100 mL of Osteoclast Precursor Basal medium to provide the Osteoclast Precursor Growth Medium (OPGM). This is warmed to 37° C. Osteoclast precursor cells (Lonza catalog #2T-110) frozen in cryovial are warmed to 37° C. and transferred to a 50 mL conical tube. The cryovial is rinsed with OPGM and added dropwise to the conical tube of cells with swirling, then the volume is adjusted to 20-30 mL with addition of OPGM. The cells are centrifuged at 200×g for 15 minutes at room temperature and all but approximately 3 mL of supernatant is removed to a new conical tube. The cells are suspended in the remaining supernatant and the volume is adjusted to 10-15 mL with OPGM added dropwise with swirling. The cells are centrifuged at 200×g for 15 minutes at room temperature and all but approximately 1 mL of supernatant is removed. The cells are resuspended in the remaining supernatant, counted, and the volume adjusted with an appropriate amount of OPGM to provide approximately 1×10^5 cells/mL. A 0.1 mL aliquot of cells is added to each well of a 96-well plate. Compound to be tested is prepared in DMSO for plating at a high concentration of 2.5 mM, with 8 point 1:3 serial dilutions. A 1 μL aliquot of each compound dilution is added to a 96 well v-bottom polypropylene plate and 0.124 mL of OPGM is added to the compound. Then 50 μL of the compound in OPGM is added to the osteoclast precursor cells in 96-well plate (providing highest test concentration of 5 μM). RANKL (2 μg) from the BulletKit is reconstituted in 1 mL of OPGM, then vortexed and centrifuged briefly. A 792 μL aliquot of RANKL is added to 6 mL of OPGM and 50 μL is added to low control wells. Then 76.6 μL M-CSF ([…]) from the BulletKit is added to the remaining 5.8 mL of OPGM/RANKL solution (4×RANKL/M-CSF/OPGM). A 50 μL aliquot of this is added to the remaining wells, and the remainder is stored at 4° C. for later use. The plate is incubated at 37° C. for 6 days, then the remaining OPGM/RANKL/M-CSF solution is warmed to 37° C. The remaining approximately 198 μL is combined with 6 mL of OPGM. The media is aspirated from the osteoclast wells and 100 μL of RANKL/OPGM is added to the low controls. The remaining RANKL/OPGM is combined with the approximately 18.5 μL of remaining M-CSF. The remaining 4×RANKL/M-CSF/OPGM from day 0 is diluted to 1× and combined with the freshly prepared solution. A 0.1 mL aliquot of this is added to each osteoclast well and incubated for 37° C. for 1 day. The Acid Phosphatase kit (Cayman Chemical catalog #10008051) is warmed to room temperature. The assay buffer is diluted 5 mL with 45 mL of water. For each plate, two substrate tablets are dissolved in 4.5 mL of the assay buffer, mixing by vortex to break up the tablet. Stop solution is diluted 12 mL with 36 mL of water. In a tissue culture hood, 20 μL of each osteoclast well supernatant is transferred to a 96 well plate. A 30 μL aliquot of the substrate solution is added to each well and incubated at 37° C. for 20 minutes, then added […] stop solution to each well. The absorbance of each well is read at 405 nm on Safire plate reader. The absorbance reading is plotted vs. concentration to provide the IC50 for each compound.

| IC50 [nM] | Structure (SMILES) |
| --- | --- |
| < 100 | COc1ccc(CNc2ncc(Cc3c[nH]c4ncc(C)cc34)cc2C)cn1 [Compound P-1554, (6-Methoxy-pyridin-3-ylmethyl)-[3-methyl-5-(5-methyl-1H-pyrrolo[2,3-b]pyridin-3-ylmethyl)-pyridin-2-yl]-amine] |
| < 100 | Fc1cncc(CNc2ccc(Cc3c[nH]c4ncc(Cl)cc34)c(F)n2)c1 [Compound P-2001, [5-(5-Chloro-1H-pyrrolo[2,3-b]pyridin-3-ylmethyl)-6-fluoro-pyridin-2-yl]-(5-fluoro-pyridin-3-ylmethyl)-amine] |
| < 100 | Cc1cnc2[nH]cc(Cc3ccc(NCc4ccc(C(F)(F)F)nc4)nc3)c2c1 [Compound P-2019, [5-(5-Methyl-1H-pyrrolo[2,3-b]pyridin-3-ylmethyl)-pyridin-2-yl]-(6-trifluoromethyl-pyridin-3-ylmethyl)-amine] |
| < 100 | COc1cnc2[nH]cc(Cc3ccc(NCc4cncc(F)c4)nc3F)c2c1 [Compound P-2028, [6-Fluoro-5-(5-methoxy-1H-pyrrolo[2,3-b]pyridin-3-ylmethyl)-pyridin-2-yl]-(5-fluoro-pyridin-3-ylmethyl)-amine] |
| < 100 | COc1ccc(CNc2ccc(Cc3c[nH]c4ncc(C)cc34)c(F)n2)cn1 [Compound P-2029, [6-Fluoro-5-(5-methyl-1H-pyrrolo[2,3-b]pyridin-3-ylmethyl)-pyridin-2-yl]-(6-methoxy-pyridin-3-ylmethyl)-amine] |
| < 100 | COc1cnc2[nH]cc(Cc3ccc(NCc4ccc(OC)nc4)nc3F)c2c1 [Compound P-2030, [6-Fluoro-5-(5-methoxy-1H-pyrrolo[2,3-b]pyridin-3-ylmethyl)-pyridin-2-yl]-(6-methoxy-pyridin-3-ylmethyl)-amine] |
| < 100 | Cc1cnc2[nH]cc(Cc3ccc(NCc4ccc(C(F)(F)F)nc4)nc3F)c2c1 [Compound P-2031, [6-Fluoro-5-(5-methyl-1H-pyrrolo[2,3-b]pyridin-3-ylmethyl)-pyridin-2-yl]-(6-trifluoromethyl-pyridin-3-ylmethyl)-amine] |
| < 100 | COc1cnc2[nH]cc(Cc3ccc(NCc4ccc(Cl)cc4)nc3F)c2c1 [Compound P-2032, (4-Chloro-benzyl)-[6-fluoro-5-(5-methoxy-1H-pyrrolo[2,3-b]pyridin-3-ylmethyl)-pyridin-2-yl]-amine] |
| < 100 | COc1ccnc2[nH]cc(Cc3ccc(NCc4ccc(Cl)cc4)nc3F)c12 [Compound P-2037, (4-Chloro-benzyl)-[6-fluoro-5-(4-methoxy-1H-pyrrolo[2,3-b]pyridin-3-ylmethyl)-pyridin-2-yl]-amine] |
| < 100 | COc1ccc(CNc2ncc(Cc3c[nH]c4ncc(Cl)cc34)cn2)cn1 [Compound P-2038, [5-(5-Chloro-1H-pyrrolo[2,3-b]pyridin-3-ylmethyl)-pyrimidin-2-yl]-(6-methoxy-pyridin-3-ylmethyl)-amine] |
| < 100 | COc1ncccc1CNc1ccc(Cc2c[nH]c3ncccc23)c(F)n1 [Compound P-2045, [6-Fluoro-5-(1H-pyrrolo[2,3-b]pyridin-3-ylmethyl)-pyridin-2-yl]-(2-methoxy-pyridin-3-ylmethyl)-amine] |
| < 100 | COc1ncc(CNc2ccc(Cc3c[nH]c4ncc(C)cc34)c(F)n2)cc1F [Compound P-2048, (5-Fluoro-6-methoxy-pyridin-3-ylmethyl)-[6-fluoro-5-(5-methyl-1H-pyrrolo[2,3-b]pyridin-3-ylmethyl)-pyridin-2-yl]-amine] |
| < 100 | COc1ncc(F)cc1CNc1ccc(Cc2c[nH]c3ncc(C)cc23)c(F)n1 [Compound P-2049, (5-Fluoro-2-methoxy-pyridin-3-ylmethyl)-[6-fluoro-5-(5-methyl-1H-pyrrolo[2,3-b]pyridin-3-ylmethyl)-pyridin-2-yl]-amine] |
| < 100 | COc1ncccc1CNc1ccc(Cc2c[nH]c3ncc(C)cc23)c(F)n1 [Compound P-2052, [6-Fluoro-5-(5-methyl-1H-pyrrolo[2,3-b]pyridin-3-ylmethyl)-pyridin-2-yl]-(2-methoxy-pyridin-3-ylmethyl)-amine] |
| < 100 | COc1ccc(CNc2ncc(Cc3c[nH]c4ncc(C)cc34)cn2)cn1 [Compound P-2057, (6-Methoxy-pyridin-3-ylmethyl)-[5-(5-methyl-1H-pyrrolo[2,3-b]pyridin-3-ylmethyl)-pyrimidin-2-yl]-amine] |
| < 100 | COc1ncc(F)cc1CNc1ncc(Cc2c[nH]c3ncc(C)cc23)cn1 [Compound P-2061, (5-Fluoro-2-methoxy-pyridin-3-ylmethyl)-[5-(5-methyl-1H-pyrrolo[2,3-b]pyridin-3-ylmethyl)-pyrimidin-2-yl]-amine] |
| < 100 | FC(F)(F)c1ccncc1CNc1ccc(Cc2c[nH]c3ncc(Cl)cc23)cn1 [Compound P-2063, [5-(5-Chloro-1H-pyrrolo[2,3-b]pyridin-3-ylmethyl)-pyridin-2-yl]-(4-trifluoromethyl-pyridin-3-ylmethyl)-amine] |
| < 100 | COc1ncc(F)cc1CNc1ncc(Cc2c[nH]c3ncc(Cl)cc23)cn1 [Compound P-2064, [5-(5-Chloro-1H-pyrrolo[2,3-b]pyridin-3-ylmethyl)-pyrimidin-2-yl]-(5-fluoro-2-methoxy-pyridin-3-ylmethyl)-amine] |
| < 100 | Cc1cnc2[nH]cc(Cc3ccc(NCc4cnccc4C(F)(F)F)nc3)c2c1 [Compound P-2070, [5-(5-Methyl-1H-pyrrolo[2,3-b]pyridin-3-ylmethyl)-pyridin-2-yl]-(4-trifluoromethyl-pyridin-3-ylmethyl)-amine] |
| < 100 | Cc1cnc2[nH]cc(Cc3cnc(NCc4ccc(C(F)(F)F)nc4)c(F)c3)c2c1 [Compound P-2146, [3-Fluoro-5-(5-methyl-1H-pyrrolo[2,3-b]pyridin-3-ylmethyl)-pyridin-2-yl]-(6-trifluoromethyl-pyridin-3-ylmethyl)-amine] |
| < 100 | COc1cnc2[nH]cc(Cc3cnc(NCc4ccc(C(F)(F)F)nc4)c(F)c3)c2c1 [Compound P-2147, [3-Fluoro-5-(5-methoxy-1H-pyrrolo[2,3-b]pyridin-3-ylmethyl)-pyridin-2-yl]-(6-trifluoromethyl-pyridin-3-ylmethyl)-amine] |
| < 100 | Cn1cc(F)cc(CNc2ncc(Cc3c[nH]c4ncc(Cl)cc34)cn2)c1=O [Compound P-2157, 3-{[5-(5-Chloro-1H-pyrrolo[2,3-b]pyridin-3-ylmethyl)-pyrimidin-2-ylamino]-methyl}-5-fluoro-1-methyl-1H-pyridin-2-one] |
| < 100 | COc1ncc(CNc2ccc(Cc3c[nH]c4ncc(Cl)cc34)c(F)n2)cc1F [Compound P-2165, [5-(5-Chloro-1H-pyrrolo[2,3-b]pyridin-3-ylmethyl)-6-fluoro-pyridin-2-yl]-(5-fluoro-6-methoxy-pyridin-3-ylmethyl)-amine] |
| < 100 | Fc1cncc(CNc2ncc(Cc3c[nH]c4ncc(Cl)cc34)cn2)c1 [Compound P-2176, [5-(5-Chloro-1H-pyrrolo[2,3-b]pyridin-3-ylmethyl)-pyrimidin-2-yl]-(5-fluoro-pyridin-3-ylmethyl)-amine] |

| Structure (SMILES) | IC50 [nM] |
| --- | --- |
| Clc1cnc2[nH]cc(Cc3ccc(NCc4ccc(Cl)nc4)nc3)c2c1 [Compound P-2003, (6-Chloro-pyridin-3-ylmethyl)-[5-(5-chloro-1H-pyrrolo[2,3-b]pyridin-3-ylmethyl)-pyridin-2-yl]-amine] | < 100 |
| Fc1ccc(CNc2ccc(Cc3c[nH]c4ncc(Cl)cc34)cn2)cn1 [Compound P-2004, [5-(5-Chloro-1H-pyrrolo[2,3-b]pyridin-3-ylmethyl)-pyridin-2-yl]-(6-fluoro-pyridin-3-ylmethyl)-amine] | < 100 |
